Test results taken from article PMC12362582, “Linker Methylation as a Strategy to Enhance PROTAC Oral Bioavailability: Insights from Molecular Properties and Conformational Analysis” (Journal of Medicinal Chemistry, 2025).
Where two headings read alike, the source gives them in different places.

What was measured:
[1] = log k'80 PLRP-S chromatographic lipophilicity; assay type: physicochemical; settings: 80% ACN / 20% 20 mM ammonium acetate, pH 7.0
Procedure: Molecular properties have been quantified with physicochemical descriptors of ionization, lipophilicity, polarity and chameleonicity (see Methods). First, ionization of the 11 PROTACs (basic center, Figure a) was analyzed by potentiometry. However, standard pK a measurements in water were limited by solubility and precipitation issues (data not shown). Therefore, to assess the dominant species at physiological pH we adopted a chromatographic method previously published by some of us. Briefly, we monitored the trend of the capacity factor named log k′80 PLRP-S at different pHs (acid-neutral-basic). […] The most neutral feature of the considered PROTACs in in line with the main role played by the neutral species in crossing membranes.
(§1) Lipophilicity was assessed using three chromatographic descriptors, each simulating distinct aspects of membrane environments. BRlogD is a surrogate of the octanol/water distribution coefficient (log D oct) reflecting a general partitioning across biological membranes. Log k W ^IAM implements an Immobilized Artificial Membrane (IAM) column which provides a lipophilicity index in an environment resembling the membrane phospholipids. Finally, log k′80 PLRP-S reflects retention in a hydrophobic polymeric column environment, mimicking the nonpolar core of lipid bilayers, and acts as a surrogate for the toluene/water partition coefficient (log D tol). Lipophilicity remained within a moderate range across all systems.
(§2) All chromatographic measurements were performed using the Thermo Scientific Inc. HPLC DIONEX Ultimate 3000 connected to an RS diode array and the Chromeleon 7.2.10 software (www.thermofisher.com). 1.5 mL HPLC vials, 9 mm PP screw caps, and high-performance ergonomic single-channel variable volume pipettors from VWR Signature were used. A Eutech pH Meter 2700 was used to regulate the pH of each buffer and sample (www.fishersci.com). For all the chromatographic descriptors, the mobile phase consisted of an acetonitrile solution (ACN) and 20 mM AAB, pH 7. Moreover, 10 μL was set as the volume of injection of compound concentrations ranging from 50 to 100 μg/mL in ACN/buffer mixtures. One mL/min was chosen as the isocratic flow rate and 30 °C as the oven temperature. However, each chromatographic system (RP) had its own conditions:
Log k′80 PLRP-S and Chamelogk, on the other hand, were measured using the PLRP-S polymeric reversed-phase column (100 Å, 5 μm, 50 × 4.6 mm) from Agilent (www.agilent.com). The assessment of log k′80 PLRP-S involved the measurement and calculation of the capacity factor of each sample at an eluent composition of 80% ACN and 20% 20 mM ammonium acetate at pH 7.0. In addition, acetone, caffeine, phenol and a mixture of uracile, acetophenone and toluene were used as gold standards. Moreover, log k′80 PLRP-S was also assessed at different pHs (2, 7 and 12) using 0.1% formate buffer, 0.1% ammonium acetate, and 10 mM triethylamine.

[2] = Bidirectional Caco-2 permeability and efflux ratio assay; assay type: in vitro ADME; settings: human
[3] = EPSA (supercritical fluid chromatography) and EPSA-to-TPSA ratio; assay type: physicochemical; settings: for EPSA: supercritical fluid chromatographic (SFC) system, SFC-based polarity descriptor
From the text: (§3) Polarity was quantified by Δlog k W ^IAM, a descriptor obtained from the experimental log k W ^IAM and BRlogD. In addition, we also measured EPSA (Table S2), another polarity descriptor based on a supercritical fluid chromatographic (SFC) system widely used in drug discovery.
Chameleonicity was monitored by Chamelogk, a recent chromatographic descriptor able to capture environment-dependent conformational changes by monitoring different mobile phase compositions on the PLRP-S column. All PROTACs behave as strong chameleons (Chamelogk > 0.6). Additionally, we calculated the EPSA-to-TPSA ratio (ETR), a recently proposed index for polarity masking. The ETR values remained consistently around 0.7 across the series, supporting the notion that conformational effects contribute uniformly to the polarity profiles of the analyzed PROTACs.

[4] = log kW IAM (IAM.PC.DD2 column) and derived Δlog kW IAM polarity; assay type: physicochemical; settings: for log kW^IAM: IAM.PC.DD2 column, extrapolated, pH 7; for Δlog kW^IAM: log kW IAM – clog kW IAM (clog = 0.92*BRlogD – 1.03)
Procedure: as §1, §3, §2
This descriptor required the use of an IAM.PC.DD2 (300 Å, 10 μm, 10 cm × 4.6 mm) column from REGIS. The organic solvent of the eluent, ACN, was modified at various percentages (from 10 to 50%, v/v) and the retention times were measured. Next, the capacity factor (log k′) values were calculated as described elsewhere and the equation represented by the five was obtained. Lastly the extrapolated value at 100% ACN (0% aqueous buffer) or log k w ^IAM was obtained. Caffeine, carbamazepine, ketoprofen, theobromine, and toluene were checked daily as gold standards. ,
This polarity descriptor was calculated using the equation Δlog k w ^IAM = log k w ^IAM – clog k w ^IAM. Clog k w ^IAM, defined as the log k w ^IAM for neutral compounds with PSA = 0, has been correlated to BRlogD by our group with the equation: clog k w ^IAM= 0.92*BRlogD – 1.03.

[5] = with Zosuquidar (P-gp inhibitor), concentration not given, Caco-2, in the presence of a Pgp inhibitor (Zosuquidar), read-out: ER (+Pgp inhibitor)
[6] = Caco-2, in the absence of an inhibitor, read-out: ER (Caco-2 efflux ratio)

log k'80 PLRP-S [1]	efflux ratio at 1 μM [2, 5]	EPSA [3] [A^2]	log kW^IAM [4]	Δlog kW^IAM [4]	efflux ratio at 1 μM [2, 6]	ETR (EPSA-to-TPSA ratio) [3]	Δlog kW^IAM ([4]; listed as A5–4)	Δlog kW^IAM ([4]; listed as A5–1)	SMILES
0.07	1.8	133	2.01	0.93	–	–	–	–	Cc1ncsc1-c1ccc([C@H](CCCN2CCC(c3ccc4c(c3)n(C3CCCC3)c3nc(=O)c5c(Br)cccc5n43)CC2)NC(=O)[C@@H]2C[C@@H](O)CN2C(=O)[C@@H](NC(=O)C2(F)CC2)C(C)(C)C)cc1 [A3-1]
0.22	1.6	133	2.37	0.85	7.5	0.73	–	–	Cc1ncsc1-c1ccc([C@H](CC[C@H](C)CCN2CCC(c3ccc4c(c3)n(C3CCCC3)c3nc(=O)c5c(Br)cccc5n43)CC2)NC(=O)[C@@H]2C[C@@H](O)CN2C(=O)[C@@H](NC(=O)C2(F)CC2)C(C)(C)C)cc1 [A5-2]
0.05	1.8	–	1.92	0.57	–	0.68	–	–	Cc1ncsc1-c1ccc([C@H](CO[C@H](C)CN2CCC(c3ccc4c(c3)n(C3CCCC3)c3nc(=O)c5c(Br)cccc5n43)CC2)NC(=O)[C@@H]2C[C@@H](O)CN2C(=O)[C@@H](NC(=O)C2(F)CC2)C(C)(C)C)cc1 [B-2]
0.08	2.2	124	2.06	0.58	23.9	0.68	–	–	Cc1ncsc1-c1ccc([C@H](CO[C@@H](C)CN2CCC(c3ccc4c(c3)n(C3CCCC3)c3nc(=O)c5c(Br)cccc5n43)CC2)NC(=O)[C@@H]2C[C@@H](O)CN2C(=O)[C@@H](NC(=O)C2(F)CC2)C(C)(C)C)cc1 [B-3]
0.18	0.9	130	2.21	0.21	9	0.68	–	–	Cc1ncsc1-c1ccc([C@H](C[C@H](C)CN2CCC(c3ccc4c(c3)n(C3CCCC3)c3nc(=O)c5c(Br)cccc5n43)CC2)NC(=O)[C@@H]2C[C@@H](O)CN2C(=O)[C@@H](NC(=O)C2(F)CC2)C(C)(C)C)cc1 [A3-2]
0.32	0.4	130	2.29	0.26	5.1	0.70	–	–	Cc1ncsc1-c1ccc([C@H](C[C@@H](C)CN2CCC(c3ccc4c(c3)n(C3CCCC3)c3nc(=O)c5c(Br)cccc5n43)CC2)NC(=O)[C@@H]2C[C@@H](O)CN2C(=O)[C@@H](NC(=O)C2(F)CC2)C(C)(C)C)cc1 [A3-3]
0.05	3	128	1.97	0.61	–	0.69	–	–	Cc1ncsc1-c1ccc([C@H](COCCN2CCC(c3ccc4c(c3)n(C3CCCC3)c3nc(=O)c5c(Br)cccc5n43)CC2)NC(=O)[C@@H]2C[C@@H](O)CN2C(=O)[C@@H](NC(=O)C2(F)CC2)C(C)(C)C)cc1 [B-1]
0.11	1.1	127	2.00	–	31.3	0.67	–	–	Cc1ncsc1-c1ccc([C@H](COC(C)(C)CN2CCC(c3ccc4c(c3)n(C3CCCC3)c3nc(=O)c5c(Br)cccc5n43)CC2)NC(=O)[C@@H]2C[C@@H](O)CN2C(=O)[C@@H](NC(=O)C2(F)CC2)C(C)(C)C)cc1 [B-4]
0.28	1	133	2.38	0.83	3.3	0.73	–	–	Cc1ncsc1-c1ccc([C@H](CC[C@@H](C)CCN2CCC(c3ccc4c(c3)n(C3CCCC3)c3nc(=O)c5c(Br)cccc5n43)CC2)NC(=O)[C@@H]2C[C@@H](O)CN2C(=O)[C@@H](NC(=O)C2(F)CC2)C(C)(C)C)cc1 [A5-3]
0.14	0.9	134	3.31	1.8	–	0.73	> 1.5	–	Cc1ncsc1-c1ccc([C@@H](CC[C@@H](C)CCN2CCC(c3ccc4c(c3)n(C3CCCC3)c3nc(=O)c5c(Br)cccc5n43)CC2)NC(=O)[C@@H]2C[C@@H](O)CN2C(=O)[C@@H](NC(=O)C2(F)CC2)C(C)(C)C)cc1 [A5-4]
0.03	1.6	136	3.00	1.77	24.2	0.75	–	> 1.5	Cc1ncsc1-c1ccc([C@H](CCCCCN2CCC(c3ccc4c(c3)n(C3CCCC3)c3nc(=O)c5c(Br)cccc5n43)CC2)NC(=O)[C@@H]2C[C@@H](O)CN2C(=O)[C@@H](NC(=O)C2(F)CC2)C(C)(C)C)cc1 [A5-1]
